Laboratory results: paper PMC7366380, “Discovery of a Potent and Selective Covalent Inhibitor and Activity-Based Probe for the Deubiquitylating Enzyme UCHL1, with Antifibrotic Activity” (Journal of the American Chemical Society, 2020)
Several values for one entry are separate records, joined by “and”; a condition that tells them apart may be missing. Identical values can stand only once.

Key:
[1] = biological target: DUBs and other proteins in HEK293 cells (Homo sapiens, UniProt Q6P2Q9); assay: In-cell proteome-wide competitive ABPP, HEK293: other DUBs and proteins; conditions: replicates A-C; for Log2 reporter intensity values: PRPF8: competition with ABP 2, DMSO substract (FC); for Log2 reporter intensity values: PRPF8, DMSO subtracted
[2] = biological target: DUBs and other proteins in HEK293 cells (Homo sapiens, UniProt O15372); assay: as above; conditions: for Log2 reporter intensity values, EIF3H: TMT replicates; for Log2 reporter intensity values / Log2 reporter intensity values: EIF3H: replicates A-C; for Log2 reporter intensity values: EIF3H: competition with ABP 2, DMSO substract (FC)
[3] = biological target: DUBs and other proteins in HEK293 cells (Homo sapiens, UniProt Q9Y5T5); assay: as above; conditions: replicates A-C; for Log2 reporter intensity values: USP16: competition with ABP 2, DMSO substract (FC); for Log2 reporter intensity values: USP16, DMSO subtracted
[4] = biological target: DUBs and other proteins in HEK293 cells (Homo sapiens, UniProt O00303); assay: as above; conditions: for Log2 reporter intensity values, EIF3F: TMT replicates; for Log2 reporter intensity values / Log2 reporter intensity values: EIF3F: replicates A-C; for Log2 reporter intensity values: EIF3F: competition with ABP 2, DMSO substract (FC)
[5] = biological target: DUBs and other proteins in HEK293 cells (Homo sapiens, UniProt Q96FW1); assay: as above; conditions: replicates A-C; for Log2 reporter intensity values: OTUB1: competition with ABP 2, DMSO substract (FC); for Log2 reporter intensity values: OTUB1, DMSO subtracted
[6] = biological target: DUBs and other proteins in HEK293 cells (Homo sapiens, UniProt Q92905); assay: as above; conditions: for Log2 reporter intensity values, COPS5: TMT replicates; for Log2 reporter intensity values / Log2 reporter intensity values: COPS5: replicates A-C; for Log2 reporter intensity values: COPS5: competition with ABP 2, DMSO substract (FC)
[7] = biological target: T1, DUBs and other proteins in HEK293 cells (Homo sapiens, UniProt Q53GS9); assay: as above; conditions: replicates A-C; for Log2 reporter intensity values: USP39: competition with ABP 2, DMSO substract (FC); for Log2 reporter intensity values: USP39, DMSO subtracted
T1 sequence (Q53GS9 1-565): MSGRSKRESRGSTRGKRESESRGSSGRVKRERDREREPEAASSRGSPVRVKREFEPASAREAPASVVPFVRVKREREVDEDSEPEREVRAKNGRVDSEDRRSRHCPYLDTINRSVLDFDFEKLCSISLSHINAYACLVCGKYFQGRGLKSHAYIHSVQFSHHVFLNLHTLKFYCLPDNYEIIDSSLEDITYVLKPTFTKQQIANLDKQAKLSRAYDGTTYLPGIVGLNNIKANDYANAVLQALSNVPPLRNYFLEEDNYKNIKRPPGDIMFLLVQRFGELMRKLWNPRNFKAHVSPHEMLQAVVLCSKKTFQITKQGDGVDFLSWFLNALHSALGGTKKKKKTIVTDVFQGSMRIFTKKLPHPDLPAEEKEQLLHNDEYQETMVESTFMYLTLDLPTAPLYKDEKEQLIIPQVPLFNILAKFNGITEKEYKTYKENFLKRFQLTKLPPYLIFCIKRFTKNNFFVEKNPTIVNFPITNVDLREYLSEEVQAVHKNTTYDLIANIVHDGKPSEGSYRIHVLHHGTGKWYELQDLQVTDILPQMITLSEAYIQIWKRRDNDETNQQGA

TRABID = biological target: T2, TRABID (Homo sapiens, UniProt Q9UGI0); assay: Biochemical DUB selectivity profiling assay: TRABID; conditions: Ub-Rho110 400 nM, buffer B; read-out: Biochemical IC50 range, TRABID
T2 sequence (Q9UGI0 1-708): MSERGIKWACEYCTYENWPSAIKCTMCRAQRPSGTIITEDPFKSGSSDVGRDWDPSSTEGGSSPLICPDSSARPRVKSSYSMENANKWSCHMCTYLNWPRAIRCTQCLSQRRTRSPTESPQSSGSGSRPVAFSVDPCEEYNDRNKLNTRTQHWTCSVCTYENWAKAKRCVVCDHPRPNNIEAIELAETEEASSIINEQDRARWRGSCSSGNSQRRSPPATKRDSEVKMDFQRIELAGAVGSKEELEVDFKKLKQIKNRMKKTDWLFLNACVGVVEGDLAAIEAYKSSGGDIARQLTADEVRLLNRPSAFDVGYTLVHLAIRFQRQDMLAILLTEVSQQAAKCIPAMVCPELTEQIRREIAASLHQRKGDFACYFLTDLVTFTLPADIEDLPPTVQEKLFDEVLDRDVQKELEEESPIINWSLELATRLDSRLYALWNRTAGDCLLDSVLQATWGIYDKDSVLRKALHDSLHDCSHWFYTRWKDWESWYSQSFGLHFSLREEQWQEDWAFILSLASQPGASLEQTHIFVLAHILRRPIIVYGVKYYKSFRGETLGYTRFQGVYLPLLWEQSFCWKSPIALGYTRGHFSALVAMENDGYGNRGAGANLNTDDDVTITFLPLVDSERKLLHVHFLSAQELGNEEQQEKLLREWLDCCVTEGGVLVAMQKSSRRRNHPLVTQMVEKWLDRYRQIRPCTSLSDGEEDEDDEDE
Method: DUB Assay Substrate Substrate
Buffer Concentration (nM) […]
Sepharose® 4B resin (GE Healthcare).
10 kDa molecular weight cut-off (MWCO)).
Fractions containing protein
Protein concentration was […]
reaction volume of 21 μL. […]
compound (final concentration 5 nM).
IC50 values were determined
Biochemical DUB selectivity profiling assays […]
in 40 µL total reaction volume.

[8] = 5 μM LDN-57444 (60 min) + 20 nM ABP 2 (10 min), All values
[9] = 5 μM LDN-57444 (60 min) + 20 nM ABP 2 (10 min), DMSO subtracted
[10] = 25 μM LDN-57444 (60 min) + 20 nM ABP 2 (10 min), All values
[11] = 25 μM LDN-57444 (60 min) + 20 nM ABP 2 (10 min), DMSO subtracted

Chain of DUBs and other proteins in HEK293 cells (Homo sapiens, UniProt Q96FW1) (Q96FW1 whole entry): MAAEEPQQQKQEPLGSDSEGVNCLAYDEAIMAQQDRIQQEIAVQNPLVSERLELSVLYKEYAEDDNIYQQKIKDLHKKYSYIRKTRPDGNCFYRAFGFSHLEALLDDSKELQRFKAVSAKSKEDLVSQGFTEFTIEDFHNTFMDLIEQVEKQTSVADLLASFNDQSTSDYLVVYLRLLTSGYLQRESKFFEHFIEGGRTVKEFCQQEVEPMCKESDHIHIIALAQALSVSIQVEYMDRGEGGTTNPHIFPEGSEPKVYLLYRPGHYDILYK
Chain of DUBs and other proteins in HEK293 cells (Homo sapiens, UniProt Q92905) (Q92905 whole entry): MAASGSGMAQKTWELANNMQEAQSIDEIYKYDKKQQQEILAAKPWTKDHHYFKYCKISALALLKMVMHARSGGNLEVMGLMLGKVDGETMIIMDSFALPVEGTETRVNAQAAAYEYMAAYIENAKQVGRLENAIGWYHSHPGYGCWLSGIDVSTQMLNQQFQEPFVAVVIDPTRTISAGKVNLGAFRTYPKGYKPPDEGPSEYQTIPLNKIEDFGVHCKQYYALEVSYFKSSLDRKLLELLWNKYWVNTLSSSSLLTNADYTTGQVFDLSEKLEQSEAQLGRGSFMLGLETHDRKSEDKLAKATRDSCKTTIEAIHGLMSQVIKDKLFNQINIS
Chain of DUBs and other proteins in HEK293 cells (Homo sapiens, UniProt O00303) (O00303 whole entry): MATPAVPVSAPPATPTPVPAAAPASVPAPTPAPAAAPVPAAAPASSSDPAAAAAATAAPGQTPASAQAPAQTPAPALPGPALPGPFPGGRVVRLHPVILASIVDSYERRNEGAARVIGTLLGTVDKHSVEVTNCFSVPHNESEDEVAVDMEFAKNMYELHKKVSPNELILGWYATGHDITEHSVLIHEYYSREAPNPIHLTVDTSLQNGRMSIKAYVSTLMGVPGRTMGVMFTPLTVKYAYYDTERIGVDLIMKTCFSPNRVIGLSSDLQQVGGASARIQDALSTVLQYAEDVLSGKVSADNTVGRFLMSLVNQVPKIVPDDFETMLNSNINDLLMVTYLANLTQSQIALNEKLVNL
Chain of DUBs and other proteins in HEK293 cells (Homo sapiens, UniProt Q9Y5T5) (Q9Y5T5 whole entry): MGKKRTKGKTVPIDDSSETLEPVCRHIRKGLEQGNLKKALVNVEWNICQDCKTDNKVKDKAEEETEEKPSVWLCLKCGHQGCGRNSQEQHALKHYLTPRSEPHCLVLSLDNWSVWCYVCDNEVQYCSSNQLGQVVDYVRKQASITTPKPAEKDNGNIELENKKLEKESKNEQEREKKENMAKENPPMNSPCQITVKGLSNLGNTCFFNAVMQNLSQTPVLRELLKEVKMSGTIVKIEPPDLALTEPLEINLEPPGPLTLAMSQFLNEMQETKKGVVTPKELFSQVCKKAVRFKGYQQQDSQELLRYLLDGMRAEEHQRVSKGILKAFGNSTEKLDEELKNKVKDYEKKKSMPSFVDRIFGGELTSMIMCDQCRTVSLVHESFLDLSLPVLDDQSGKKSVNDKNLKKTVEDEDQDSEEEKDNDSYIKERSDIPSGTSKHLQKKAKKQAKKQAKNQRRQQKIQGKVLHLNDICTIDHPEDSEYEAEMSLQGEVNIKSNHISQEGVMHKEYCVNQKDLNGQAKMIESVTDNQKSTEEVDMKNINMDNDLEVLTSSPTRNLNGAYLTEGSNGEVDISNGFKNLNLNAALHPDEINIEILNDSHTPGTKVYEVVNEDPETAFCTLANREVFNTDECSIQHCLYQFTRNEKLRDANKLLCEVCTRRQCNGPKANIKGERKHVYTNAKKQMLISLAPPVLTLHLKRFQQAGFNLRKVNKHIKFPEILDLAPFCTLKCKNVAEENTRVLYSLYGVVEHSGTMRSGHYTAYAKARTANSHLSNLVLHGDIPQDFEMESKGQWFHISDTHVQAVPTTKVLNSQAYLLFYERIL
Chain of DUBs and other proteins in HEK293 cells (Homo sapiens, UniProt O15372) (O15372 whole entry): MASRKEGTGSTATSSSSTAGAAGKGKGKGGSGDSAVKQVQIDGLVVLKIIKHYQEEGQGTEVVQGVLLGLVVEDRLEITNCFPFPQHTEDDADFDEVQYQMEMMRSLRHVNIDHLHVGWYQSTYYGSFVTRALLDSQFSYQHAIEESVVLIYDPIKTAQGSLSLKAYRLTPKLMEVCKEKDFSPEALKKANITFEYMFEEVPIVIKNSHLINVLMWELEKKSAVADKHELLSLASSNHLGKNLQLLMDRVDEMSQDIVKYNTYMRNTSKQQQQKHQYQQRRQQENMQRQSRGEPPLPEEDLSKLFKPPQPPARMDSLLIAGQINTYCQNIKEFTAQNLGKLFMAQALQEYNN

## CC(=O)O/N=C1\C(=O)N(Cc2cc(Cl)ccc2Cl)c2ccc(Cl)cc21 [LDN]
[1]; LDN at 5 μM
  Log2 reporter intensity values: PRPF8: 0.8673 and 0.9446 and 0.9404
  Log2 reporter intensity values: -0.2054 and -0.08218 and -0.0886
[1]; LDN at 25 μM
  Log2 reporter intensity values: PRPF8: 0.9445 and 0.9891 and 0.9788
  Log2 reporter intensity values: -0.08236 and -0.01582 and -0.0309
[1]; LDN_5 μM
  Log2 reporter intensity values: -0.1329 and -0.05561 and -0.05981
[1]; LDN_25 μM
  Log2 reporter intensity values: -0.05573 and -0.01115 and -0.02143
[2]; [8]
  Log2 reporter intensity values, EIF3H: 0.06362 and 0.03651 and 0.05305
[2]; [9]
  Log2 reporter intensity values, EIF3H: 0.03403 and 0.006918 and 0.02346
[2]; [10]
  Log2 reporter intensity values, EIF3H: 0.05041 and 0.03867 and 0.01604
[2]; [11]
  Log2 reporter intensity values, EIF3H: 0.02082 and 0.009076 and -0.01355
[2]; EIF3H, LDN - 5 μM
  Log2 t-test Difference: 0.02512
[2]; EIF3H, LDN at 5 μM, DMSO subtracted
  Log2 reporter intensity values: 0.03403 and 0.006918 and 0.02346
[2]; EIF3H, LDN at 25 μM, DMSO subtracted
  Log2 reporter intensity values: 0.02082 and 0.009076 and -0.01355
[2]; EIF3H, LDN_5 μM, DMSO subtracted
  Log2 reporter intensity values: 0.02373 and 0.004663 and 0.01625
[2]; EIF3H, LDN_25 μM, DMSO subtracted
  Log2 reporter intensity values: 0.01439 and 0.006167 and -0.009494
[2]; LDN at 5 μM
  Log2 reporter intensity values: EIF3H: 1.024 and 1.005 and 1.016
[2]; LDN at 25 μM
  Log2 reporter intensity values: EIF3H: 1.015 and 1.006 and 0.9907
[3]; LDN at 5 μM
  Log2 reporter intensity values: USP16: 1.149 and 1.181 and 1.095
  Log2 reporter intensity values: 0.2004 and 0.2395 and 0.1308
[3]; LDN at 25 μM
  Log2 reporter intensity values: USP16: 1.216 and 1.053 and 1.129
  Log2 reporter intensity values: 0.2823 and 0.07456 and 0.1753
[3]; LDN_5 μM
  Log2 reporter intensity values: 0.1468 and 0.1784 and 0.09274
[3]; LDN_25 μM
  Log2 reporter intensity values: 0.2139 and 0.05085 and 0.127
[4]; [8]
  Log2 reporter intensity values, EIF3F: 0.1312 and 0.08738 and -0.0291
[4]; [9]
  Log2 reporter intensity values, EIF3F: 0.1407 and 0.09693 and -0.01955
[4]; [10]
  Log2 reporter intensity values, EIF3F: 0.03265 and -0.09761 and -0.112
[4]; [11]
  Log2 reporter intensity values, EIF3F: 0.0422 and -0.08806 and -0.1024
[4]; EIF3F, LDN - 5 μM
  Log2 t-test Difference: -0.01801
[4]; EIF3F, LDN at 5 μM, DMSO subtracted
  Log2 reporter intensity values: 0.1407 and 0.09693 and -0.01955
[4]; EIF3F, LDN at 25 μM, DMSO subtracted
  Log2 reporter intensity values: 0.0422 and -0.08806 and -0.1024
[4]; EIF3F, LDN_5 μM, DMSO subtracted
  Log2 reporter intensity values: 0.102 and 0.06908 and -0.01388
[4]; EIF3F, LDN_25 μM, DMSO subtracted
  Log2 reporter intensity values: 0.02927 and -0.05963 and -0.06897
[4]; LDN at 5 μM
  Log2 reporter intensity values: EIF3F: 1.102 and 1.069 and 0.9865
[4]; LDN at 25 μM
  Log2 reporter intensity values: EIF3F: 1.03 and 0.9408 and 0.9315
[5]; LDN at 5 μM
  Log2 reporter intensity values: OTUB1: 1.034 and 1.042 and 1.019
  Log2 reporter intensity values: 0.04805 and 0.05934 and 0.02777
[5]; LDN at 25 μM
  Log2 reporter intensity values: OTUB1: 1.066 and 0.9796 and 1.019
  Log2 reporter intensity values: 0.09269 and -0.02973 and 0.02677
[5]; LDN_5 μM
  Log2 reporter intensity values: 0.03375 and 0.04187 and 0.01932
[5]; LDN_25 μM
  Log2 reporter intensity values: 0.06623 and -0.02052 and 0.01861
[6]; [8]
  Log2 reporter intensity values, COPS5: 0.02618 and -0.0337 and -0.04942
[6]; [9]
  Log2 reporter intensity values, COPS5: 0.0843 and 0.02441 and 0.00869
[6]; [10]
  Log2 reporter intensity values, COPS5: 0.09342 and -0.06531 and -0.07503
[6]; [11]
  Log2 reporter intensity values, COPS5: 0.1515 and -0.007194 and -0.01692
[6]; COPS5, LDN - 5 μM
  Log2 t-test Difference: -0.1232
[6]; COPS5, LDN at 5 μM, DMSO subtracted
  Log2 reporter intensity values: 0.0843 and 0.02441 and 0.00869
[6]; COPS5, LDN at 25 μM, DMSO subtracted
  Log2 reporter intensity values: 0.1515 and -0.007194 and -0.01692
[6]; COPS5, LDN_5 μM, DMSO subtracted
  Log2 reporter intensity values: 0.06009 and 0.01698 and 0.005959
[6]; COPS5, LDN_25 μM, DMSO subtracted
  Log2 reporter intensity values: 0.1107 and -0.005057 and -0.01174
[6]; LDN at 5 μM
  Log2 reporter intensity values: COPS5: 1.06 and 1.017 and 1.006
[6]; LDN at 25 μM
  Log2 reporter intensity values: COPS5: 1.111 and 0.995 and 0.9883
[7]; LDN at 5 μM
  Log2 reporter intensity values: USP39: 1.029 and 1.043 and 0.9785
  Log2 reporter intensity values: 0.04123 and 0.06024 and -0.03137
[7]; LDN at 25 μM
  Log2 reporter intensity values: USP39: 1.07 and 1.069 and 1.033
  Log2 reporter intensity values: 0.09762 and 0.09571 and 0.04713
[7]; LDN_5 μM
  Log2 reporter intensity values: 0.02838 and 0.04203 and -0.02212
[7]; LDN_25 μM
  Log2 reporter intensity values: 0.0694 and 0.06798 and 0.0326

## CC(=O)O/N=C1\C(=O)N(Cc2cc(Cl)ccc2Cl)c2ccc(Cl)cc21 [LDN-57444, reference compound]
TRABID
  IC50: > 10 µM
